In patent US8916702B2 (priority 2012, dated 2014):

test system: HCV pseudoparticles (genotype 1a HCV E1 and E2 envelope, H77C isolate); assay: microbe, parasite or virus in culture; assay type: cell-based; details: Hepatitis C virus, Huh-7, 48 h, HCV pseudoparticle infection of Huh7 cells, luciferase 2 days after infection; average of duplicates

| Compound | EC50 [nM] |
| --- | --- |
| CC(=O)c1ccc(NC(=O)C(=O)NCC(C)(C)CNC(=O)c2ccc(Nc3nc(NC4(c5ccc(Cl)cc5)CC4)nc(OCC(F)(F)F)n3)cc2)cc1 [Compound 1603] | 0.04 |
| COC(=O)[C@H](CCNC(=O)C(=O)NCCc1ccc(OC)cc1)NC(=O)c1ccc(Nc2nc(NC3(c4ccc(Cl)cc4)CC3)nc(OCC(F)(F)F)n2)cc1 [Compound 1310] | 0.62 |

same assay, conditions: Hepatitis C virus, Huh-7, 48 h, HCV pseudoparticles (genotype 1a, H77C) in Huh7 cells; average of duplicate; luciferase 2 days after infection

| Compound | EC50 [nM] |
| --- | --- |
| Cc1ccc(NC(=O)C(=O)N2CCCC(CNC(=O)c3ccc(Nc4nc(NC5(c6ccc(Cl)cc6)CC5)nc(OCC(F)(F)F)n4)cc3)C2)cc1 (stereo not drawn) [Compound 3481] | 0.065 |
| COC(=O)[C@H](CCNC(=O)C(=O)Nc1ccc(-n2cnc(Cl)c2Cl)cc1)NC(=O)c1ccc(Nc2nc(NC3(c4ccc(Cl)cc4)CC3)nc(OCC(F)(F)F)n2)cc1 [Compound 3124] | 18.2 |
| CC(C)(CNC(=O)c1ccc(Nc2nc(NC3(c4ccc(Cl)cc4)CC3)nc(OCC(F)(F)F)n2)cc1)NC(=O)C(=O)Nc1ccccc1 [Compound 3425] | 0.033 |

same assay, conditions: Hepatitis C virus, Huh-7, 48 h, read-out: Activity (EC50 class), HCV pseudoparticle infection of Huh7 cells, luciferase 2 days after infection; EC50 expressed as class A/B

| Compound | EC50 [nM] |
| --- | --- |
| COC(=O)[C@H](CCNC(=O)C(=O)N[C@H](C)C1CC1)NC(=O)c1ccc(Nc2nc(NC3(c4ccc(Cl)cc4)CC3)nc(OCC(F)(F)F)n2)cc1 [Compound 1377] | 0.01 to 10 |
| O=C(NCC[C@H](NC(=O)c1ccc(Nc2nc(NC3(c4ccc(Cl)cc4)CC3)nc(OCC(F)(F)F)n2)cc1)C(=O)O)C(=O)NC(CCO)C1CC1 (stereo partly drawn) [Compound 1439] | 0.01 to 10 |
| CC(C)(C)OC(=O)N1CCC(CNC(=O)C(=O)NCC[C@H](NC(=O)c2ccc(Nc3nc(NC4(c5ccc(Cl)cc5)CC4)nc(OCC(F)(F)F)n3)cc2)C(=O)O)CC1 [Compound 1213] | 0.01 to 10 |
| COC(=O)[C@H](CNC(=O)C(=O)NC1(Cc2ccccc2)CC1)NC(=O)c1ccc(Nc2nc(NC3(c4ccc(Cl)cc4)CC3)nc(OCC(F)(F)F)n2)cc1 [Compound 1304] | 0.01 to 10 |
| CC(C)(CNC(=O)C(=O)Nc1ccc2c(c1)oc1ccccc12)CNC(=O)c1ccc(Nc2nc(NC3(c4ccc(Cl)cc4)CC3)nc(OCC(F)(F)F)n2)cc1 [Compound 1577] | 0.01 to 10 |
| COC(=O)[C@H](CCNC(=O)C(=O)NC1CCCC(C)C1)NC(=O)c1ccc(Nc2nc(NC3(c4ccc(Cl)cc4)CC3)nc(OCC(F)(F)F)n2)cc1 (stereo partly drawn) [Compound 1076] | 0.01 to 10 |
| COC(=O)[C@H](CCNC(=O)C(=O)NC1CCCCC1C)NC(=O)c1ccc(Nc2nc(NC3(c4ccc(Cl)cc4)CC3)nc(OCC(F)(F)F)n2)cc1 (stereo partly drawn) [Compound 1075] | 0.01 to 10 |
| COC(=O)[C@H](CCNC(=O)C(=O)NCCc1cccc(F)c1)NC(=O)c1ccc(Nc2nc(NC3(c4ccc(Cl)cc4)CC3)nc(OCC(F)(F)F)n2)cc1 [Compound 1312] | 0.01 to 10 |
| CC(C)(CNC(=O)C(=O)Nc1ccc(F)cc1F)CNC(=O)c1ccc(Nc2nc(NC3(c4ccc(Cl)cc4)CC3)nc(OCC(F)(F)F)n2)cc1 [Compound 1539] | 0.01 to 10 |
| COc1ccc(CNC(=O)C(=O)NC[C@H](NC(=O)c2ccc(Nc3nc(NC4(c5ccc(Cl)cc5)CC4)nc(OCC(F)(F)F)n3)cc2)C(=O)O)cc1OC [Compound 1176] | 0.01 to 10 |
| CC(=O)c1ccc(NC(=O)C(=O)NCC(C)(C)CNC(=O)c2ccc(Nc3nc(NC4(c5ccc(Cl)cc5)CC4)nc(OCC(F)(F)F)n3)cc2)cc1 [Compound 1603] | 0.01 to 10 |
| CC(C)(C)OC(=O)N1CCCC(CNC(=O)C(=O)NCC[C@H](NC(=O)c2ccc(Nc3nc(NC4(c5ccc(Cl)cc5)CC4)nc(OCC(F)(F)F)n3)cc2)C(=O)O)C1 (stereo partly drawn) [Compound 1204] | 0.01 to 10 |
| COC(=O)[C@H](CCNC(=O)C(=O)NCCc1ccc(OC)cc1)NC(=O)c1ccc(Nc2nc(NC3(c4ccc(Cl)cc4)CC3)nc(OCC(F)(F)F)n2)cc1 [Compound 1310] | 0.01 to 10 |
| COC(=O)[C@H](CCNC(=O)C(=O)Nc1ccc(-c2ccncc2)cc1)NC(=O)c1ccc(Nc2nc(NC3(c4ccc(Cl)cc4)CC3)nc(OCC(F)(F)F)n2)cc1 [Compound 1517] | 0.01 to 10 |
| COC(=O)[C@H](CCNC(=O)C(=O)Nc1ccnc(OC)c1)NC(=O)c1ccc(Nc2nc(NC3(c4ccc(Cl)cc4)CC3)nc(OCC(F)(F)F)n2)cc1 [Compound 1217] | 0.01 to 10 |
| COC(=O)C(CNC(=O)C(=O)NC1CC(C)(C)CC(C)(C)C1)NC(=O)c1ccc(Nc2nc(NC3(c4ccc(Cl)cc4)CC3)nc(OCC(F)(F)F)n2)cc1 (stereo not drawn) [Compound 1047] | 0.01 to 10 |
| COC(=O)[C@@H](CCNC(=O)C(=O)NCC1(CN2CCOCC2)CC1)NC(=O)c1ccc(Nc2nc(NC3(c4ccc(Cl)cc4)CC3)nc(OCC(F)(F)F)n2)cc1 [Compound 1382] | 0.01 to 10 |

same assay, conditions: Hepatitis C virus, Huh-7, 48 h, read-out: Activity (EC50 class), HCV pseudoparticles, Huh7 cells, luciferase 2 days after infection; average of duplicates

| Compound | EC50 [nM] |
| --- | --- |
| CC(C)(CNC(=O)C(=O)Nc1nc2c(F)cc(F)cc2s1)CNC(=O)c1ccc(Nc2nc(NC3(c4ccc(Cl)cc4)CC3)nc(OCC(F)(F)F)n2)cc1 [Compound 3809] | 0.01 to 10 |
| O=C(NCC[C@H](NC(=O)c1ccc(Nc2nc(NC3(c4ccc(Cl)cc4)CC3)nc(OCC(F)(F)F)n2)cc1)C(=O)O)C(=O)Nc1ccc(OCCN2CCCCC2)nc1 [Compound 3661] | 0.01 to 10 |
| O=C(NC[C@H](NC(=O)c1ccc(Nc2nc(NC3(c4ccc(Cl)cc4)CC3)nc(OCC(F)(F)F)n2)cc1)C(=O)O)C(=O)Nc1ccc(Oc2cccnc2)nc1 [Compound 3755] | 0.01 to 10 |
| COC(=O)[C@H](CNC(=O)C(=O)Nc1cccc(C(N)=O)c1)NC(=O)c1ccc(Nc2nc(NC3(c4ccc(Cl)cc4)CC3)nc(OCC(F)(F)F)n2)cc1 [Compound 3689] | 0.01 to 10 |
| CC(C)(CNC(=O)C(=O)Nc1ccc(CNC(N)=O)cc1)CNC(=O)c1ccc(Nc2nc(NC3(c4ccc(Cl)cc4)CC3)nc(OCC(F)(F)F)n2)cc1 [Compound 3671] | 0.01 to 10 |
| COc1cc2nc(NC(=O)C(=O)NCC(C)(C)CNC(=O)c3ccc(Nc4nc(NC5(c6ccc(Cl)cc6)CC5)nc(OCC(F)(F)F)n4)cc3F)sc2cc1OC [Compound 3677] | 0.01 to 10 |
| COC(=O)[C@H](CCNC(=O)C(=O)Nc1cccc(-c2ccc(Cl)cc2)c1)NC(=O)c1ccc(Nc2nc(NC3(c4ccc(Cl)cc4)CC3)nc(OCC(F)(F)F)n2)cc1 [Compound 3599] | 0.01 to 10 |

same assay, conditions: Hepatitis C virus, Huh-7, read-out: Activity (EC50 class), HCV pseudoparticles (genotype 1a, H77C) in Huh7 cells; EC50 expressed as class A/B

| Compound | EC50 [nM] |
| --- | --- |
| CN(CCCNC(=O)c1ccc(Nc2nc(NC3(c4ccc(Cl)cc4)CC3)nc(OCC(F)(F)F)n2)cc1)C(=O)C(N)=O [Compound 3447] | 0.01 to 10 |
| O=C(NCCC(NC(=O)c1ccc(Nc2nc(NC3(c4ccc(Cl)cc4)CC3)nc(OCC(F)(F)F)n2)cc1)C(=O)O)C(=O)Nc1ccc(Cn2cncn2)cc1 (stereo not drawn) [Compound 3520] | 0.01 to 10 |
| COC(=O)[C@H](CNC(=O)C(=O)Nc1ccc(C(C)C)cc1)NC(=O)c1ccc(Nc2nc(NC3(c4ccc(Cl)cc4)CC3)nc(OCC(F)(F)F)n2)cc1 [Compound 3212] | 0.01 to 10 |
| O=C(NCCNC(=O)c1ccc(Nc2nc(NC3(c4ccc(Cl)cc4)CC3)nc(OCC(F)(F)F)n2)cc1)C(=O)NCc1ccc(F)cc1 [Compound 3370] | 0.01 to 10 |
| CC(C)(CNC(=O)c1ccc(Nc2nc(NC3(c4ccc(Cl)cc4)CC3)nc(OCC(F)(F)F)n2)cc1)NC(=O)C(=O)N1CCCCC1 [Compound 3439] | 0.01 to 10 |
| O=C(NCCCN(CCO)C(=O)C(=O)N1CCCCC1)c1ccc(Nc2nc(NC3(c4ccc(Cl)cc4)CC3)nc(OCC(F)(F)F)n2)cc1 [Compound 3509] | 0.01 to 10 |
| CC(C)(CNC(=O)C(=O)Nc1ccc2ncsc2c1)CNC(=O)c1ccc(Nc2nc(NC3(c4ccc(Cl)cc4)CC3)nc(OCC(F)(F)F)n2)cc1 [Compound 3340] | 0.01 to 10 |
| CC(C)(CNC(=O)C(=O)Nc1ccc(Cl)c(F)c1)CNC(=O)c1ccc(Nc2nc(NC3(c4ccc(Cl)cc4)CC3)nc(OCC(F)(F)F)n2)cc1F [Compound 3513] | 0.01 to 10 |
| COc1ccc(C2(Nc3nc(Nc4ccc(C(=O)NCC(C)(C)CNC(=O)C(N)=O)cc4)nc(OCC(F)(F)F)n3)CC2)cc1C(F)(F)F [Compound 3351] | 0.01 to 10 |
| Cc1ccc(NC(=O)C(=O)N2CCCC(CNC(=O)c3ccc(Nc4nc(NC5(c6ccc(Cl)cc6)CC5)nc(OCC(F)(F)F)n4)cc3)C2)cc1 (stereo not drawn) [Compound 3481] | 0.01 to 10 |
| CN(CCCN(C)C(=O)c1ccc(Nc2nc(NC3(c4ccc(Cl)cc4)CC3)nc(OCC(F)(F)F)n2)cc1)C(=O)C(=O)Nc1cccc(F)c1 [Compound 3410] | 0.01 to 10 |
| CC(C)(CNC(=O)C(N)=O)CNC(=O)c1ccc(Nc2nc(NC3(c4ccc(Cl)cc4)CC3)nc(OCC(F)(F)F)n2)c(F)c1 [Compound 3386] | 0.01 to 10 |
| COC(=O)[C@H](CCNC(=O)C(=O)Nc1ccc(Cn2ccnc2C)cc1)NC(=O)c1ccc(Nc2nc(NC3(c4ccc(Cl)cc4)CC3)nc(OCC(F)(F)F)n2)cc1 [Compound 3321] | 10 to 1000 |
| CC(C)(CNC(=O)c1ccc(Nc2nc(NC3(c4ccc(Cl)cc4)CC3)nc(OCC(F)(F)F)n2)cc1)NC(=O)C(=O)Nc1cc(F)cc(F)c1 [Compound 3424] | 0.01 to 10 |
| O=C(N[C@H](CCNC(=O)c1ccc(Nc2nc(NC3(c4ccc(Cl)cc4)CC3)nc(OCC(F)(F)F)n2)cc1)C(=O)O)C(=O)N1CCc2ccccc2C1 [Compound 3495] | 0.01 to 10 |
| O=C(NC/C(=N/C(=O)c1ccc(Nc2nc(NC3(c4ccc(Cl)cc4)CC3)nc(OCC(F)(F)F)n2)cc1)C(=O)O)C(=O)Nc1ccc(NCc2ccccc2)cc1 [Compound 3158] | 0.01 to 10 |
| COC(=O)[C@H](CCNC(=O)C(=O)Nc1ccc(-n2cnc(Cl)c2Cl)cc1)NC(=O)c1ccc(Nc2nc(NC3(c4ccc(Cl)cc4)CC3)nc(OCC(F)(F)F)n2)cc1 [Compound 3124] | 0.01 to 10 |
| Cc1ccc(NC(=O)C(=O)N(CCO)CCCNC(=O)c2ccc(Nc3nc(NC4(c5ccc(Cl)cc5)CC4)nc(OCC(F)(F)F)n3)cc2)cc1 [Compound 3501] | 0.01 to 10 |
| O=C(NC/C(=N/C(=O)c1ccc(Nc2nc(NC3(c4ccc(Cl)cc4)CC3)nc(OCC(F)(F)F)n2)cc1)C(=O)O)C(=O)Nc1ccc(-n2cccn2)cc1 [Compound 3173] | 0.01 to 10 |
| CC(C)c1ccc(NC(=O)C(=O)NC[C@H](NC(=O)c2ccc(Nc3nc(NC4(c5ccc(Cl)cc5)CC4)nc(OCC(F)(F)F)n3)cc2)C(=O)O)cc1 [Compound 3295] | 0.01 to 10 |
| CCN(CC)CCNC(=O)c1ccc(NC(=O)C(=O)NC/C(=N/C(=O)c2ccc(Nc3nc(NC4(c5ccc(Cl)cc5)CC4)nc(OCC(F)(F)F)n3)cc2)C(=O)O)cc1 [Compound 3157] | 0.01 to 10 |
| CC(C)(CNC(=O)c1ccc(Nc2nc(NC3(c4ccc(Cl)cc4)CC3)nc(OCC(F)(F)F)n2)cc1)NC(=O)C(=O)Nc1ccccc1 [Compound 3425] | 0.01 to 10 |
| CC(C)(CNC(=O)C(=O)NCc1ccccc1F)CNC(=O)c1ccc(Nc2nc(NC3(c4ccc(Cl)cc4)CC3)nc(OCC(F)(F)F)n2)cc1 [Compound 3005] | 0.01 to 10 |
| COC(=O)[C@H](CNC(=O)C(=O)Nc1ccc(CNC(N)=O)cc1)NC(=O)c1ccc(Nc2nc(NC3(c4ccc(Cl)cc4)CC3)nc(OCC(F)(F)F)n2)cc1 [Compound 3197] | 0.01 to 10 |
| Cc1ccc(NC(=O)C(=O)NC(C)(C)CNC(=O)c2ccc(Nc3nc(NC4(c5ccc(Cl)cc5)CC4)nc(OCC(F)(F)F)n3)cc2)cc1Cl [Compound 3441] | 0.01 to 10 |
